Data as given in ChEMBL document CHEMBL5465560, “Selectivity Literature for EUbOPEN Chemogenomic Library” (2024).

Legend:
[1] = target: Calcium/calmodulin-dependent protein kinase type II subunit alpha (Homo sapiens, UniProt Q9UQM7); assay: Selectivity interaction (Kinase panel (KiNativ target engagement assay in Jurkat cells)) EUB0001635a CAMK2A; type: cell-based; conditions: Selectivity number of off-targets 0.0, Selectivity number of targets 233.0, Source Knowledge https://www.sciencedirect.com/science/article/pii/S2451945619300674?via%3Dihub, at 1 µM
[2] = target: Phosphatidylinositol 4-phosphate 5-kinase type-1 alpha (Homo sapiens) (UniProt Q99755); assay: Selectivity interaction (KinomeScan (DiscoverX)) EUB0000695a PIP5K1A; conditions: at 100 nM
[3] = target: Activin receptor type-1-like (Homo sapiens) (UniProt P37023); assay: Selectivity interaction (KinomeScan (DiscoverX)) EUB0001079a ACVRL1; conditions: at 1 µM
[4] = target: TGF-beta receptor type-2 (Homo sapiens) (UniProt P37173); assay: Selectivity interaction (LanthaScreen Eu Kinase Binding Assay) EUB0001632a TGFBR2; conditions: at 10 µM
[5] = target: MAP kinase-interacting serine/threonine-protein kinase 1 (Homo sapiens) (UniProt Q9BUB5); assay: Selectivity interaction (KinomeScan (DiscoverX)) EUB0000666a MKNK1; conditions: at 10 µM
[6] = target: Tyrosine-protein kinase Fgr (Homo sapiens) (UniProt P09769); assay: Selectivity interaction (KinomeScan (DiscoverX)) EUB0001049a FGR; conditions: at 1 µM
[7] = target: T1, Cytoplasmic tyrosine-protein kinase BMX (Homo sapiens) (UniProt P51813); assay: Selectivity interaction (ProQinase) EUB0000171b BMX
T1 sequence (whole entry): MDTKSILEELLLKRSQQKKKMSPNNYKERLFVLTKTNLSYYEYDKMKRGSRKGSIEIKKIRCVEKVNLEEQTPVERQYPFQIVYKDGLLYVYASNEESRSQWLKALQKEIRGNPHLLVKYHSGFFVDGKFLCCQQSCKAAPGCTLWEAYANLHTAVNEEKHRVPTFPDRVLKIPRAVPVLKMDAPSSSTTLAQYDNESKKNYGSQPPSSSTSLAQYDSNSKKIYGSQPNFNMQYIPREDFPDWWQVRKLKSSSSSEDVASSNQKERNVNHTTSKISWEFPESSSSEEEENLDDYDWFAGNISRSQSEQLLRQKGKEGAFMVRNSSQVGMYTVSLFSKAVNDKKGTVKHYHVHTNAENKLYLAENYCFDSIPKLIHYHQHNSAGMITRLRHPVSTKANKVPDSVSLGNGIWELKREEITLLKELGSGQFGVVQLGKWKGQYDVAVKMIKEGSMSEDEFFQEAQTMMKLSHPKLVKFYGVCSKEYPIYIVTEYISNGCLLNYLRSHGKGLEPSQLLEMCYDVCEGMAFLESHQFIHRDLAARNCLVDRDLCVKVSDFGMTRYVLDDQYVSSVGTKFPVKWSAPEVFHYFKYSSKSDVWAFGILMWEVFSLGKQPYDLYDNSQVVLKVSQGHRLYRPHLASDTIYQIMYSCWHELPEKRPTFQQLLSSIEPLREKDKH

[8] = target: MAP/microtubule affinity-regulating kinase 3 (Homo sapiens) (UniProt P27448); assay: Selectivity interaction (KinomeScan (DiscoverX)) EUB0001619a MARK3; conditions: at 1 µM
[9] = target: Serine/threonine-protein kinase Nek6 (Homo sapiens) (UniProt Q9HC98); assay: Selectivity interaction (KinomeScan (DiscoverX)) EUB0000607a NEK6; conditions: at 10 µM
[10] = target: Tyrosine-protein kinase Fes/Fps (Homo sapiens) (UniProt P07332); assay: Selectivity interaction (Kinase panel (DSF assay)) EUB0001558a FES
[11] = target: Homeodomain-interacting protein kinase 1 (Homo sapiens, UniProt Q86Z02); assay: Selectivity interaction (KinomeScan (DiscoverX)) EUB0000655a HIPK1; conditions: at 10 µM
[12] = target: T2, Inhibitor of nuclear factor kappa-B kinase subunit epsilon (Homo sapiens) (UniProt Q14164); assay: Selectivity interaction (KinomeScan (DiscoverX)) EUB0000655a IKBKE; conditions: at 10 µM
T2 sequence (whole entry): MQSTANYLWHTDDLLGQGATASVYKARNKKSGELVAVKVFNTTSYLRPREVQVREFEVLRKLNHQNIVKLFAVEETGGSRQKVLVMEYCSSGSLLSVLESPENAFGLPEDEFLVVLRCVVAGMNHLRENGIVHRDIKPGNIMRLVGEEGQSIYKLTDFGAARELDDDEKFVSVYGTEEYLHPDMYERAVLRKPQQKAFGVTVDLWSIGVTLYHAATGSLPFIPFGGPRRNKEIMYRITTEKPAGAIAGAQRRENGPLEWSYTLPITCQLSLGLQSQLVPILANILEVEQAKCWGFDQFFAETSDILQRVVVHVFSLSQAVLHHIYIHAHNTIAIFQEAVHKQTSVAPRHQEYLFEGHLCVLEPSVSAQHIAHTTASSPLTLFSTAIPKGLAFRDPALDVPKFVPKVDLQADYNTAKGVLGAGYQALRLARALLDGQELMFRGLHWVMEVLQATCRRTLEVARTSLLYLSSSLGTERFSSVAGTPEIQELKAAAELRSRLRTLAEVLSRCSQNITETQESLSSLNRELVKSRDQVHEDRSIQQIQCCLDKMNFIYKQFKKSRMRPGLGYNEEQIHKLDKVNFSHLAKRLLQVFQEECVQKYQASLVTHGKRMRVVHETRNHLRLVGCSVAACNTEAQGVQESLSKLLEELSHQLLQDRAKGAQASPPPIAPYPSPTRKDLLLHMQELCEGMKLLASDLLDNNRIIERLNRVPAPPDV

[13] = system: Tyrosine-protein kinase ABL1 (Homo sapiens), P00519 [F317I]; assay: (§1) Selectivity interaction (KinomeScan (DiscoverX)) EUB0000092b ABL1; conditions: at 10 µM
[14] = system: Tyrosine-protein kinase ABL1 (Homo sapiens), P00519 [F317L]; assay: as §1; conditions: at 10 µM
[15] = system: Tyrosine-protein kinase ABL1 (Homo sapiens), P00519 [H396P]; assay: as §1; conditions: at 10 µM
[16] = system: Tyrosine-protein kinase ABL1 (Homo sapiens), P00519 [M351T]; assay: as §1; conditions: at 10 µM
[17] = system: Tyrosine-protein kinase ABL1 (Homo sapiens), P00519 [Q252H]; assay: as §1; conditions: at 10 µM
[18] = system: Tyrosine-protein kinase ABL1 (Homo sapiens), P00519 [T315I]; assay: as §1; conditions: at 10 µM
[19] = target: Tyrosine-protein kinase ABL1 (Homo sapiens, UniProt P00519); assay: as §1; conditions: at 10 µM
[20] = target: Glycogen synthase kinase-3 beta (Homo sapiens, UniProt P49841); assay: Selectivity interaction (KinomeScan (DiscoverX)) EUB0000092b GSK3B; conditions: at 10 µM
[21] = target: Cyclin-dependent kinase 17 (Homo sapiens) (UniProt Q00537); assay: Selectivity interaction (KinomeScan (DiscoverX)) EUB0000092b CDK17; conditions: at 10 µM

Glycogen synthase kinase-3 beta, sequence (P49841 whole entry, looked up): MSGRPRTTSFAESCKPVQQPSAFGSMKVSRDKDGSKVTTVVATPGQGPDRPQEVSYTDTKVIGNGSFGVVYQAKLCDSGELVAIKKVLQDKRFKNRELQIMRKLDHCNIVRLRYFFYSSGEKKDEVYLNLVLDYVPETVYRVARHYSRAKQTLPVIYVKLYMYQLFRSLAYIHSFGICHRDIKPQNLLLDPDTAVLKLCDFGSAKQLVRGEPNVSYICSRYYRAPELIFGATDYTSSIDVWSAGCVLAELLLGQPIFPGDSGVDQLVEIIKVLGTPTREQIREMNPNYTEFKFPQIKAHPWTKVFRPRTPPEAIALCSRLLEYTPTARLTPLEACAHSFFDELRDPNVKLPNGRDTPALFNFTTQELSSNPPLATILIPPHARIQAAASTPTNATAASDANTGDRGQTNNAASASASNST
Phosphatidylinositol 4-phosphate 5-kinase type-1 alpha (Homo sapiens), sequence (Q99755 whole entry): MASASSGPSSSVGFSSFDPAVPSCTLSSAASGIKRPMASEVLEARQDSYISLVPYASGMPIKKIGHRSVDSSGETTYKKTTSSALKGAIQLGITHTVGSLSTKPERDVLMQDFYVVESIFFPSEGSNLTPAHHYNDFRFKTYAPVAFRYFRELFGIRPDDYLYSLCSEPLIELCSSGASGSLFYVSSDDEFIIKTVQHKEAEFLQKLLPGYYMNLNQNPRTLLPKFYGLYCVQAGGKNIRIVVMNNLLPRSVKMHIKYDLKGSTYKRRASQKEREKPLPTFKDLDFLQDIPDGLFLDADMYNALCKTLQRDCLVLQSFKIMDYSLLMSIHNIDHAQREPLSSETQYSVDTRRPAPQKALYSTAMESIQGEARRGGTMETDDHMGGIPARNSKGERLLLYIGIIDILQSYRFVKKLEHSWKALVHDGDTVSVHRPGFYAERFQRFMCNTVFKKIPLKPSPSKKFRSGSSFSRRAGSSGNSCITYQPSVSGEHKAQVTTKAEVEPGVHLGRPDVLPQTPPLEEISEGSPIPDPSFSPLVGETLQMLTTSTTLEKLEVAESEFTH
MAP/microtubule affinity-regulating kinase 3 (Homo sapiens), sequence (P27448 whole entry, looked up): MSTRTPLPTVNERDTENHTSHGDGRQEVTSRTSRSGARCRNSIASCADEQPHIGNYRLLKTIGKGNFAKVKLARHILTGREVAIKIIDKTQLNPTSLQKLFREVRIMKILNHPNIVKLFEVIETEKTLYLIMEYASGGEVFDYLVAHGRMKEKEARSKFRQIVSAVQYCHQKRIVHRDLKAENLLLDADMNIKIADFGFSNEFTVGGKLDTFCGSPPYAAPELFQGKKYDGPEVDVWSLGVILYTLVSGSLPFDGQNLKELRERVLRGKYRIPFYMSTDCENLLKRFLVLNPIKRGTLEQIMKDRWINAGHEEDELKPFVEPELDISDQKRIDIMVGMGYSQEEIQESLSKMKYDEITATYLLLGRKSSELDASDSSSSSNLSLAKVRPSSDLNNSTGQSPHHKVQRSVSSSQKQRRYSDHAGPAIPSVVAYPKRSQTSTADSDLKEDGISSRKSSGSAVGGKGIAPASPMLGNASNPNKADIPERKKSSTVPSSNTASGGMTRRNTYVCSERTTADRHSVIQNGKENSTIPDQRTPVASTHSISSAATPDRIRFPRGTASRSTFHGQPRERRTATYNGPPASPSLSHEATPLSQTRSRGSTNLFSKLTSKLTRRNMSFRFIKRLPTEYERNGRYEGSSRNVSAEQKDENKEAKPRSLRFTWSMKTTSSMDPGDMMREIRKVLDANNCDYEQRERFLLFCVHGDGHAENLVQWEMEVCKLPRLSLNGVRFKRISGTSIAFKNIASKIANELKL
TGF-beta receptor type-2 (Homo sapiens), sequence (P37173 whole entry): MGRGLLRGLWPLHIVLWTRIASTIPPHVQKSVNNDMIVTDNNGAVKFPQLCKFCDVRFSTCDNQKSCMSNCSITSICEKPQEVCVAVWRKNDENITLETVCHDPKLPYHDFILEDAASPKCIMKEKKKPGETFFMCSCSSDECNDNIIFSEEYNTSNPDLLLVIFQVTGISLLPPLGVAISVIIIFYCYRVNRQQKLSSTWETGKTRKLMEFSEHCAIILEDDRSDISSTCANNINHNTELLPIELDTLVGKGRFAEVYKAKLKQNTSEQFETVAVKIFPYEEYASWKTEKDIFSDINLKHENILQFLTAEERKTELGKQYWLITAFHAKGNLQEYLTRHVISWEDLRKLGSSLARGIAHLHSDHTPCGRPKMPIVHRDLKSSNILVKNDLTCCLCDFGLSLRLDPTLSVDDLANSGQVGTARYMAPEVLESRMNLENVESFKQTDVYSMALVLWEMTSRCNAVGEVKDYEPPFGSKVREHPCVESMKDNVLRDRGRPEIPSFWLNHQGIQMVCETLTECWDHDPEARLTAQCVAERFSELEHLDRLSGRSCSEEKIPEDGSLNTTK
Activin receptor type-1-like (Homo sapiens), sequence (P37023 whole entry): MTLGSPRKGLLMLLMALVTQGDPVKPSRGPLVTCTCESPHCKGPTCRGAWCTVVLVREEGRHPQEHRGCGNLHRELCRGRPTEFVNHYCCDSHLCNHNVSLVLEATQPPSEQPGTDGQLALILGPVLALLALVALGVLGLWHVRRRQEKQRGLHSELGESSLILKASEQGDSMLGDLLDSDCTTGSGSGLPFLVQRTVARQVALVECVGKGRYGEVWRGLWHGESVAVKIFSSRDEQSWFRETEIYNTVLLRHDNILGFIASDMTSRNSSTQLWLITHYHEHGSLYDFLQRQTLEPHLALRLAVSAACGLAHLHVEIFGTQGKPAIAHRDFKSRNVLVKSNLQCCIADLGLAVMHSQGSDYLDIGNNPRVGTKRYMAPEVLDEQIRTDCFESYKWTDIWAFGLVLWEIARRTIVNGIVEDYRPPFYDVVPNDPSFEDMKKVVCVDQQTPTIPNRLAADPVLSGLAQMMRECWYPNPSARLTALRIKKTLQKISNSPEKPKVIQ
Tyrosine-protein kinase Fgr (Homo sapiens), sequence (P09769 2-529 limits assumed): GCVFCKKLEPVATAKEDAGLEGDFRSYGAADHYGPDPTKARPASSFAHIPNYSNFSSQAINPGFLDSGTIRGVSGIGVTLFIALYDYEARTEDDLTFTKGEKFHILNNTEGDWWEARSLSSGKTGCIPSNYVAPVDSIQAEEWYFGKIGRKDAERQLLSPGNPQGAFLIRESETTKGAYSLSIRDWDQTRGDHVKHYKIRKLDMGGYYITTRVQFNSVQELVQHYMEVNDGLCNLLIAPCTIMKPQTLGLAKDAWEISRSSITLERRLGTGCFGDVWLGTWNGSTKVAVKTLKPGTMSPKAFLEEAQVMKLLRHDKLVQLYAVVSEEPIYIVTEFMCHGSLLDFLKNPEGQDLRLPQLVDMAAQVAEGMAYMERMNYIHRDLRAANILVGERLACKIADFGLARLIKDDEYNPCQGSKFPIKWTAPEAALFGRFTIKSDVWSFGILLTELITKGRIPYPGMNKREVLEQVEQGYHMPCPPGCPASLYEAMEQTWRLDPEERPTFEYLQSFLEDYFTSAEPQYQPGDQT
Homeodomain-interacting protein kinase 1, sequence (Q86Z02 whole entry, looked up): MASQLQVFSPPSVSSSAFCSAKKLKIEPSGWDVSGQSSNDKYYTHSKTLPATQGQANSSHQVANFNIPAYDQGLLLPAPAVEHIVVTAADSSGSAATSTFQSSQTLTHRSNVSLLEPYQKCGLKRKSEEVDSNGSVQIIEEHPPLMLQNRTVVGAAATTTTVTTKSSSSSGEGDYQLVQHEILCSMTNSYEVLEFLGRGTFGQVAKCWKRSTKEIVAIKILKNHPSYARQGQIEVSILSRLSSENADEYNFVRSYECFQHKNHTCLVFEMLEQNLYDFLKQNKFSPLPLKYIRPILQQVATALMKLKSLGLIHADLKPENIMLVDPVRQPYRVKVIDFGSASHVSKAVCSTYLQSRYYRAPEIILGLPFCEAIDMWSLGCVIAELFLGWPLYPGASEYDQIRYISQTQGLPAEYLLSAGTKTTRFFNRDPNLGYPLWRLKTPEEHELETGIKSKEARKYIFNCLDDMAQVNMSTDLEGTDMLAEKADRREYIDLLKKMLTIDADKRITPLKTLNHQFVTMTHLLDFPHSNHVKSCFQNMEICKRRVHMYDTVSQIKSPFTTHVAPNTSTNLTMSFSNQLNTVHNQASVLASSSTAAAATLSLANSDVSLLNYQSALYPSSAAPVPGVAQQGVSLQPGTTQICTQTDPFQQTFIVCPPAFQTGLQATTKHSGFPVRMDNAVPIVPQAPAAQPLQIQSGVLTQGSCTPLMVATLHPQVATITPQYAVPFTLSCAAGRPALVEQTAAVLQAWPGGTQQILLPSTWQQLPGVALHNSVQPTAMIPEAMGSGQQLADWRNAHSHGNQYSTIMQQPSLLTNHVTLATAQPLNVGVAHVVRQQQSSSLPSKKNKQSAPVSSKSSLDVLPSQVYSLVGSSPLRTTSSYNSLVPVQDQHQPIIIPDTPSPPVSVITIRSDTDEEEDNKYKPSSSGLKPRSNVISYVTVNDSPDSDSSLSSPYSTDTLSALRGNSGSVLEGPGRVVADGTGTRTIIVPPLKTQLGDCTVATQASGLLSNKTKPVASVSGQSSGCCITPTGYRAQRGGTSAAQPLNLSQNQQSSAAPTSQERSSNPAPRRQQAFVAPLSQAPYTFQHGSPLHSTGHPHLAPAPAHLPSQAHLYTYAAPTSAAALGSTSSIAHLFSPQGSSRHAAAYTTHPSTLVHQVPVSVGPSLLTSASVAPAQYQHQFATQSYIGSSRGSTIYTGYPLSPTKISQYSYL
MAP kinase-interacting serine/threonine-protein kinase 1 (Homo sapiens), sequence (Q9BUB5 whole entry, looked up): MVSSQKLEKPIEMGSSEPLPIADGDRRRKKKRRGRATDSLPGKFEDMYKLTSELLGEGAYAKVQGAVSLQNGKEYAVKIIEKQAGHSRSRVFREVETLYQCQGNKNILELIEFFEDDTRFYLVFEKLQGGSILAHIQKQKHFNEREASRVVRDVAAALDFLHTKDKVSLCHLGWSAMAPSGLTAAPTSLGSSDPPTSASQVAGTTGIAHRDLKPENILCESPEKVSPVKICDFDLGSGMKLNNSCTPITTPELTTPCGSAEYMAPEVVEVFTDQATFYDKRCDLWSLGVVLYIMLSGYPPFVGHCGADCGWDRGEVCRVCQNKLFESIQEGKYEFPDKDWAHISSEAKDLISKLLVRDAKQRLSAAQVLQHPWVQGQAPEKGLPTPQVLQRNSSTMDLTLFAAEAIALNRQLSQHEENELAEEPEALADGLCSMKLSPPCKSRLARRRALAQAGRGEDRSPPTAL

For `C=CC(=O)Nc1ccc(C(=O)Nc2[nH]nc3c2CN(C(=O)N[C@H](CN(C)C)c2ccccc2)C3(C)C)cc1`, the % of engagement [1] was 24.5%.

`Cc1cc(F)c(C(=O)Nc2cccc(-c3nncn3C(C)C)n2)cc1-n1cnc(C2CC2)c1` was tested, and the % of control [2] was 78%.

Compound `Nc1cnc(N2CCc3cc(S(=O)(=O)Nc4c(F)cc(Cl)cc4F)cc(N4CCCC4=O)c32)nc1` [TP-020n] has a % of control [3] of 86%.

`Cn1cc(-n2cnc3c(NCc4nc5cc(Cl)c(Cl)cc5[nH]4)nc(N4CCOCC4)nc32)cn1` was tested, and the % of inhibition [4] was -26.6%.

`O=C(NOC[C@H](O)CO)c1ccc(F)c(F)c1Nc1ccc(I)cc1F` was tested, and the % of control [5] was 100%.

With `COc1cc(Nc2nc(C)cc(-c3cnn4nc(OC)ccc34)n2)cc(C(F)(F)F)c1` the % of control [6] was 94%.

With `C=CC(=O)Nc1cccc(C(=O)Nc2ccc(Nc3cc(-c4[nH]c(SC)nc4C)ccn3)cc2)c1` the % of control ([7]; at 1 µM) was 106% and the % of control ([7]; at 5 µM) was 85%.

In the case of `N#Cc1cccc(-c2c[nH]c3ncnc(N4CCOCC4)c23)c1`, the % of control [8] was 100%.

`CNC(=O)Nc1ccc(-c2nc(N3CC4CCC(C3)O4)c3cnn(C4CCC5(CC4)OCCO5)c3n2)cc1` gave a % of control [9] of 90%.

`CC(C)(O)[C@H](F)CN1Cc2cc(NC(=O)c3cnn4cccnc34)c(N3CCOCC3)cc2C1=O` gave a dTM [10] of 0.3 K.

`CN(C)CCOc1ccc(-c2nc(-c3ccncc3)c(-c3ccc4c(c3)CC/C4=N\O)[nH]2)cc1` gave a % of control [11] of 11% and a % of control [12] of 85%.

In the case of `CCC(=O)N1CCN(c2ccc(-n3c(=O)ccc4cnc5ccc(-c6cnc7ccccc7c6)cc5c43)cc2C(F)(F)F)CC1`, the % of control [13] was 100%, the % of control [14] was 100% and the % of control [15] was 68%. The % of control [16] was 100%, the % of control [17] was 89% and the % of control [18] was 100%. For the same compound, the % of control [19] was 60%, the % of control [20] was 100% and the % of control [21] was 97%.
